# PubChem BioAssay (NCI)
# Values joined by “and” are separate entries in the source; they are usually repeats but may differ in a detail not shown here. Equal entries are not always repeated.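 Each compound was tested at five concentrations against cells in 96-well plates for 48 hours. At the GI50, growth is halved. The concentration for full growth arrest is given as TGI.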
# Key:
# Test in all cases: inhibition of tumour cell growth, NCI panel, 48 h
# RXF 393 renal = tested on: RXF 393 renal
# HCC-2998 colon = tested on: HCC-2998 colon
# DU-145 prostate = tested on: DU-145 prostate
# IGROV1 ovarian = tested on: IGROV1 ovarian
# DMS 114 small cell lung = tested on: DMS 114 small cell lung
# RPMI-8226 leukemia = tested on: RPMI-8226 leukemia
# COLO 205 colon = tested on: COLO 205 colon
# HCT-15 colon = tested on: HCT-15 colon
# NCI-H522 lung = tested on: NCI-H522 lung
# SF-268 CNS = tested on: SF-268 CNS
# SF-539 CNS = tested on: SF-539 CNS
# NCI-H23 lung = tested on: NCI-H23 lung
# OVCAR-5 ovarian = tested on: OVCAR-5 ovarian
# MDA-N = tested on: MDA-N
# UO-31 renal = tested on: UO-31 renal
# 786-0 renal = tested on: 786-0 renal
# SNB-75 CNS = tested on: SNB-75 CNS
# EKVX NSCLC = tested on: EKVX NSCLC
# SK-MEL-28 melanoma = tested on: SK-MEL-28 melanoma
# SNB-19 CNS = tested on: SNB-19 CNS
# SF-295 CNS = tested on: SF-295 CNS
# MDA-MB-231 breast = tested on: MDA-MB-231 breast
# CAKI-1 renal = tested on: CAKI-1 renal
# HT29 colon = tested on: HT29 colon
# DLD-1 colon = tested on: DLD-1 colon
# XF 498 CNS = tested on: XF 498 CNS
# MDA-MB-435 = tested on: MDA-MB-435
# OVCAR-3 ovarian = tested on: OVCAR-3 ovarian
# M14 melanoma = tested on: M14 melanoma
# RXF-631 renal = tested on: RXF-631 renal
# A549 NSCLC = tested on: A549 NSCLC
# BT-549 breast = tested on: BT-549 breast
# HOP-92 NSCLC = tested on: HOP-92 NSCLC
# MALME-3M melanoma = tested on: MALME-3M melanoma
# SR leukemia = tested on: SR leukemia
# HOP-62 NSCLC = tested on: HOP-62 NSCLC
# DMS 273 small cell lung = tested on: DMS 273 small cell lung
# SW-620 colon = tested on: SW-620 colon
# HS 578T breast = tested on: HS 578T breast
# OVCAR-8 ovarian = tested on: OVCAR-8 ovarian
# ACHN renal = tested on: ACHN renal
# KM12 colon = tested on: KM12 colon
# NCI-H460 lung = tested on: NCI-H460 lung
# PC-3 prostate = tested on: PC-3 prostate
# HL-60(TB) leukemia = tested on: HL-60(TB) leukemia
# NCI/ADR-RES ovarian = tested on: NCI/ADR-RES ovarian
# U251 CNS = tested on: U251 CNS
# LXFL 529 NSCLC = tested on: LXFL 529 NSCLC
# SK-MEL-2 melanoma = tested on: SK-MEL-2 melanoma
# K-562 leukemia = tested on: K-562 leukemia
# LOX IMVI melanoma = tested on: LOX IMVI melanoma
# HOP-18 NSCLC = tested on: HOP-18 NSCLC
# CCRF-CEM leukemia = tested on: CCRF-CEM leukemia
# UACC-257 melanoma = tested on: UACC-257 melanoma
# TK-10 renal = tested on: TK-10 renal
# SNB-78 CNS = tested on: SNB-78 CNS
# UACC-62 melanoma = tested on: UACC-62 melanoma
# A498 renal = tested on: A498 renal
# OVCAR-4 ovarian = tested on: OVCAR-4 ovarian
# M19-MEL melanoma = tested on: M19-MEL melanoma
# SK-MEL-5 melanoma = tested on: SK-MEL-5 melanoma
# MCF7 breast = tested on: MCF7 breast
# SK-OV-3 ovarian = tested on: SK-OV-3 ovarian
# T-47D breast = tested on: T-47D breast
# HCT-116 colon = tested on: HCT-116 colon
# KM20L2 colon = tested on: KM20L2 colon
# MOLT-4 leukemia = tested on: MOLT-4 leukemia
# NCI-H226 lung = tested on: NCI-H226 lung
# SN12C renal = tested on: SN12C renal
smiles,measurement,setting,value
Cc1c(Cl)cccc1NC(=O)CC1Sc2ccccc2NC1=O (stereo not given),TGI,RXF 393 renal,28 µM and 41.6 µM
same,TGI,HCC-2998 colon,52.7 µM and 34.9 µM
same,TGI,DU-145 prostate,> 100 µM
same,GI50,IGROV1 ovarian,20 µM and 45.1 µM
same,TGI,IGROV1 ovarian,65 µM and > 100 µM
same,TGI,DMS 114 small cell lung,> 100 µM
same,TGI,RPMI-8226 leukemia,> 100 µM
same,TGI,COLO 205 colon,> 100 µM
same,GI50,HCT-15 colon,8.53 µM and 41.9 µM
same,TGI,HCT-15 colon,> 100 µM
same,TGI,NCI-H522 lung,64.7 µM and 79.7 µM
same,GI50,SF-268 CNS,18.4 µM and 37.1 µM
same,TGI,SF-268 CNS,46.6 µM and > 100 µM
same,TGI,SF-539 CNS,45.1 µM and 36.2 µM
same,TGI,NCI-H23 lung,70 µM and > 100 µM
same,TGI,OVCAR-5 ovarian,> 100 µM
same,TGI,MDA-N,8.28 µM
same,TGI,UO-31 renal,49.2 µM and 54.8 µM
same,TGI,786-0 renal,50.9 µM and 31.7 µM
same,GI50,SNB-75 CNS,4.95 µM and 14.5 µM
same,TGI,SNB-75 CNS,19 µM and 36.5 µM
same,TGI,EKVX NSCLC,> 100 µM
same,GI50,SK-MEL-28 melanoma,27.4 µM and 55 µM
same,TGI,SK-MEL-28 melanoma,> 100 µM
same,TGI,SNB-19 CNS,52.8 µM and 42.5 µM
same,TGI,SF-295 CNS,58.9 µM and > 100 µM
same,TGI,MDA-MB-231 breast,32.1 µM
same,TGI,CAKI-1 renal,77.4 µM and > 100 µM
same,TGI,HT29 colon,63.3 µM
same,TGI,DLD-1 colon,> 100 µM
same,TGI,XF 498 CNS,68.9 µM and 50.2 µM
same,TGI,MDA-MB-435,9.79 µM
same,TGI,OVCAR-3 ovarian,31.2 µM and 41.9 µM
same,TGI,M14 melanoma,81.7 µM and 93 µM
same,GI50,RXF-631 renal,44.5 µM and 21 µM
same,TGI,RXF-631 renal,> 100 µM and 57.5 µM
same,TGI,A549 NSCLC,54.2 µM and > 100 µM
same,TGI,BT-549 breast,> 100 µM
same,TGI,HOP-92 NSCLC,42.9 µM and 64 µM
same,TGI,MALME-3M melanoma,50.7 µM and 47.2 µM
same,TGI,SR leukemia,56.7 µM
same,TGI,HOP-62 NSCLC,42.3 µM and 31.1 µM
same,GI50,DMS 273 small cell lung,10.6 µM and 26 µM
same,TGI,DMS 273 small cell lung,> 100 µM
same,GI50,SW-620 colon,11 µM and 26.3 µM
same,TGI,SW-620 colon,56.8 µM and 77.3 µM
same,TGI,HS 578T breast,25.3 µM
same,TGI,OVCAR-8 ovarian,33.3 µM and 43.3 µM
same,TGI,ACHN renal,63.6 µM and 69.8 µM
same,TGI,KM12 colon,> 91.6 µM and 45.9 µM
same,TGI,NCI-H460 lung,61.5 µM and 62.5 µM
same,TGI,PC-3 prostate,> 86.5 µM
same,TGI,HL-60(TB) leukemia,54.2 µM and 49.3 µM
same,TGI,NCI/ADR-RES ovarian,58.9 µM
same,TGI,U251 CNS,34.9 µM and 33.6 µM
same,TGI,LXFL 529 NSCLC,> 100 µM
same,TGI,SK-MEL-2 melanoma,59.6 µM and 41.9 µM
same,TGI,K-562 leukemia,99.7 µM and > 100 µM
same,TGI,LOX IMVI melanoma,83.8 µM and > 100 µM
same,TGI,HOP-18 NSCLC,32.7 µM and 31.5 µM
same,TGI,CCRF-CEM leukemia,> 100 µM
same,GI50,UACC-257 melanoma,38.7 µM and 5.35 µM
same,TGI,UACC-257 melanoma,> 94.7 µM and 37.8 µM
same,GI50,TK-10 renal,20.8 µM and 48.2 µM
same,TGI,TK-10 renal,49.6 µM and > 100 µM
same,TGI,SNB-78 CNS,99 µM and > 100 µM
same,GI50,UACC-62 melanoma,15.2 µM and 38.6 µM
same,TGI,UACC-62 melanoma,77.5 µM and > 100 µM
same,TGI,A498 renal,38.2 µM and 37.5 µM
same,TGI,OVCAR-4 ovarian,40 µM and 40.4 µM
same,TGI,M19-MEL melanoma,> 100 µM
same,TGI,SK-MEL-5 melanoma,67.7 µM and > 100 µM
same,TGI,MCF7 breast,> 87 µM
same,TGI,SK-OV-3 ovarian,33 µM and 39.3 µM
same,TGI,T-47D breast,86.5 µM
same,TGI,HCT-116 colon,46.2 µM and 31.4 µM
same,TGI,KM20L2 colon,> 85.9 µM and 55 µM
same,TGI,MOLT-4 leukemia,> 100 µM
same,TGI,NCI-H226 lung,41.7 µM and 54.8 µM
same,TGI,SN12C renal,65.6 µM and > 100 µM
COc1cc2c(cc1OC)C1c3ccccc3C(C#N)(C2)N(C(=O)c2ccccc2)C1O (stereo not given),TGI,RXF 393 renal,> 100 µM
same,TGI,HCC-2998 colon,> 100 µM
same,TGI,IGROV1 ovarian,> 100 µM
same,TGI,DMS 114 small cell lung,> 100 µM
same,TGI,RPMI-8226 leukemia,> 100 µM
same,TGI,COLO 205 colon,53.1 µM
same,TGI,HCT-15 colon,> 100 µM
same,TGI,NCI-H522 lung,56.4 µM
same,TGI,SF-268 CNS,> 100 µM
same,TGI,SF-539 CNS,> 100 µM
same,TGI,NCI-H23 lung,> 100 µM
same,TGI,OVCAR-5 ovarian,> 100 µM
same,TGI,UO-31 renal,> 100 µM
same,TGI,786-0 renal,> 100 µM
same,TGI,SNB-75 CNS,> 100 µM
same,TGI,EKVX NSCLC,> 100 µM
same,TGI,SK-MEL-28 melanoma,> 100 µM
same,TGI,SNB-19 CNS,> 100 µM
same,TGI,SF-295 CNS,> 100 µM
same,TGI,HT29 colon,> 100 µM
same,TGI,DLD-1 colon,> 100 µM
same,TGI,XF 498 CNS,95.9 µM
same,TGI,OVCAR-3 ovarian,> 100 µM
same,TGI,M14 melanoma,> 100 µM
same,TGI,RXF-631 renal,> 100 µM
same,TGI,HOP-92 NSCLC,> 100 µM
same,TGI,MALME-3M melanoma,> 100 µM
same,TGI,SR leukemia,> 100 µM
same,TGI,HOP-62 NSCLC,> 100 µM
same,TGI,DMS 273 small cell lung,> 100 µM
same,TGI,SW-620 colon,> 100 µM
same,TGI,OVCAR-8 ovarian,> 100 µM
same,TGI,ACHN renal,> 100 µM
same,TGI,KM12 colon,> 100 µM
same,TGI,NCI-H460 lung,> 100 µM
same,TGI,HL-60(TB) leukemia,> 100 µM
same,TGI,U251 CNS,> 100 µM
same,TGI,LXFL 529 NSCLC,> 100 µM
same,TGI,SK-MEL-2 melanoma,> 100 µM
same,TGI,K-562 leukemia,> 100 µM
same,TGI,LOX IMVI melanoma,> 100 µM
same,TGI,HOP-18 NSCLC,> 100 µM
same,TGI,CCRF-CEM leukemia,> 100 µM
same,TGI,UACC-257 melanoma,> 100 µM
same,TGI,TK-10 renal,> 100 µM
same,TGI,SNB-78 CNS,> 100 µM
same,TGI,UACC-62 melanoma,> 100 µM
same,TGI,M19-MEL melanoma,> 100 µM
same,TGI,SK-MEL-5 melanoma,90 µM
same,TGI,SK-OV-3 ovarian,> 100 µM
same,TGI,HCT-116 colon,> 100 µM
same,TGI,KM20L2 colon,> 100 µM
same,TGI,MOLT-4 leukemia,> 100 µM
same,TGI,NCI-H226 lung,> 100 µM
same,TGI,SN12C renal,> 100 µM
